Measurements as given in ChEMBL document CHEMBL1201862, “PubChem BioAssay data set” (2004).
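The compound was tested at five concentrations on cells cultured in 96-well plates, with a 48-hour exposure period. The concentration for 50% growth inhibition is given as GI50.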 Activity calls are given as the source filed them. Rule as the data show it: active = GI50 up to about 1.1 µM and inactive = higher.

Experiments:
Assay in all cases: growth of human tumour cells (NCI), 48 h
UO-31 = tested on: UO-31
SF-295 = tested on: SF-295
UACC-257 = tested on: UACC-257
HOP-92 = tested on: HOP-92
HOP-62 = tested on: HOP-62
OVCAR-8 = tested on: OVCAR-8
NCI-H522 = tested on: NCI-H522
SK-MEL-5 = tested on: SK-MEL-5
NCI-H23 = tested on: NCI-H23
HT-29 = tested on: HT-29
M19-MEL = tested on: M19-MEL
SF-539 = tested on: SF-539
SNB-75 = tested on: SNB-75
CCRF-CEM = tested on: CCRF-CEM
SK-MEL-28 = tested on: SK-MEL-28
786-0 = tested on: 786-0
EKVX = tested on: EKVX
A498 = tested on: A498
SNB-78 = tested on: SNB-78
Hs-578T = tested on: Hs-578T

Structure (SMILES)	GI50 (UO-31)	GI50 (SF-295)	GI50 (UACC-257)	GI50 (HOP-92)	GI50 (HOP-62)	GI50 (OVCAR-8)	GI50 (NCI-H522)	GI50 (SK-MEL-5)	GI50 (NCI-H23)	GI50 (HT-29)	GI50 (M19-MEL)	GI50 (SF-539)	GI50 (SNB-75)	GI50 (CCRF-CEM)	GI50 (SK-MEL-28)	GI50 (786-0)	GI50 (EKVX)	GI50 (A498)	GI50 (SNB-78)	GI50 (Hs-578T)
O=c1cc(-c2ccccc2)[nH]c2cc(F)cc(F)c12	37 µM (inactive)	25.1 µM (inactive)	40.1 µM (inactive)	41.6 µM (inactive)	26.5 µM (inactive)	57.5 µM (inactive)	11.9 µM (inactive)	10.1 µM (inactive)	48.6 µM (inactive)	36.6 µM (inactive)	31.6 µM (inactive)	24.4 µM (inactive)	14.8 µM (inactive)	61.7 µM (inactive)	27.2 µM (inactive)	52.4 µM (inactive)				
CCC/C=C1\CCC(CN(C)C)C1=O (stereo not drawn)	12.4 µM (inactive)	24.1 µM (inactive)	15 µM (inactive)	3.04 µM (inactive)	15.7 µM (inactive)	10.2 µM (inactive)	1.93 µM (inactive)	16.7 µM (inactive)	17.1 µM (inactive)	8.11 µM (inactive)	12.9 µM (inactive)	10.8 µM (inactive)	18.1 µM (inactive)	1.09 µM (active)	6.52 µM (inactive)	2.81 µM (inactive)	6.12 µM (inactive)	0.455 µM (active)		
COC(=O)/C(=N/NC(N)=O)C(C(=O)OC)C(=O)C(=O)Nc1ccc(Cl)cc1 (stereo not drawn)	> 100 µM (inactive)	> 100 µM (inactive)	> 100 µM (inactive)	> 100 µM (inactive)	> 100 µM (inactive)	> 100 µM (inactive)	> 100 µM (inactive)	> 100 µM (inactive)	> 100 µM (inactive)	> 100 µM (inactive)	> 100 µM (inactive)	> 100 µM (inactive)	> 100 µM (inactive)	> 50.1 µM (inactive)	> 100 µM (inactive)	> 100 µM (inactive)	> 100 µM (inactive)	> 100 µM (inactive)		
COc1cc(/C=C/c2csnn2)cc(OC)c1OC	> 100 µM (inactive)	> 100 µM (inactive)	> 100 µM (inactive)	66.7 µM (inactive)	> 100 µM (inactive)	> 100 µM (inactive)	> 100 µM (inactive)	> 100 µM (inactive)	> 100 µM (inactive)	> 100 µM (inactive)	> 100 µM (inactive)	> 100 µM (inactive)		> 100 µM (inactive)	> 100 µM (inactive)	> 100 µM (inactive)	52.2 µM (inactive)		> 100 µM (inactive)	
CC(=O)CC(=O)/C=C/c1cccs1	93.3 µM (inactive)	> 100 µM (inactive)	> 100 µM (inactive)		> 100 µM (inactive)	> 100 µM (inactive)	42.3 µM (inactive)	37.1 µM (inactive)	> 100 µM (inactive)	58.9 µM (inactive)	83.9 µM (inactive)	31.6 µM (inactive)		38.5 µM (inactive)		99.5 µM (inactive)	> 100 µM (inactive)	64.9 µM (inactive)		
CN[C@@H](C)[C@H](N)c1ccccc1	> 100 µM (inactive)	> 100 µM (inactive)	> 100 µM (inactive)	> 100 µM (inactive)		> 100 µM (inactive)	> 100 µM (inactive)	> 100 µM (inactive)	> 100 µM (inactive)	> 100 µM (inactive)		> 100 µM (inactive)	> 100 µM (inactive)	> 100 µM (inactive)	> 100 µM (inactive)	> 100 µM (inactive)	> 100 µM (inactive)	> 100 µM (inactive)	> 100 µM (inactive)	
CCOC(=O)CN1C(=O)c2cccc3cc([N+](=O)[O-])cc(c23)C1=O	14 µM (inactive)		2.51 µM (inactive)	2.19 µM (inactive)	18.2 µM (inactive)	1.78 µM (inactive)		12.4 µM (inactive)	2.04 µM (inactive)	12.1 µM (inactive)		3.57 µM (inactive)	10.4 µM (inactive)	0.287 µM (active)	2.85 µM (inactive)	13.4 µM (inactive)	15.2 µM (inactive)	16.8 µM (inactive)	5.82 µM (inactive)	
CCOC(=O)C1=C(Nc2ccccc2)SCC1=O	> 100 µM (inactive)	> 100 µM (inactive)	> 100 µM (inactive)	> 100 µM (inactive)	> 100 µM (inactive)	> 100 µM (inactive)	> 100 µM (inactive)		> 100 µM (inactive)	> 100 µM (inactive)	> 100 µM (inactive)	> 100 µM (inactive)	> 100 µM (inactive)		> 100 µM (inactive)	> 100 µM (inactive)			> 100 µM (inactive)	
CCOc1cccc2c1N[S@@](=O)S2	98.4 µM (inactive)	80.4 µM (inactive)	> 100 µM (inactive)	> 100 µM (inactive)			55.5 µM (inactive)		> 100 µM (inactive)	> 100 µM (inactive)	> 100 µM (inactive)	> 100 µM (inactive)	> 100 µM (inactive)	40.6 µM (inactive)	> 100 µM (inactive)	> 100 µM (inactive)	> 100 µM (inactive)		> 100 µM (inactive)	
COc1cccc2c1C(=O)c1c(O)c3c(c(O)c1C2=O)C[C@@](O)(C(=O)CO)CC3OC1CC(N)C(OC2CCCCO2)C(C)O1 (stereo partly drawn)	0.762 µM (active)	0.23 µM (active)	1.17 µM (inactive)	0.0715 µM (active)	0.144 µM (active)	0.35 µM (active)	0.541 µM (active)	0.299 µM (active)	0.478 µM (active)	0.853 µM (active)		0.267 µM (active)	0.417 µM (active)	0.168 µM (active)	1.5 µM (inactive)	0.272 µM (active)	1.39 µM (inactive)	0.309 µM (active)	1.5 µM (inactive)	0.164 µM (active)
COC1=C2C[C@@H](C)C[C@@H](OC)[C@@H](O)[C@H](C)/C=C(\C)[C@@H](OC(N)=O)[C@H](OC)/C=C\C=C(/C)C(=O)NC(=CC1=O)C2=O	0.189 µM (active)	9.38 µM (inactive)	0.0769 µM (active)	0.112 µM (active)	3.38 µM (inactive)	0.0614 µM (active)	0.036 µM (active)	0.678 µM (active)	0.0309 µM (active)	0.0143 µM (active)		0.132 µM (active)		0.0282 µM (active)	0.113 µM (active)	0.0762 µM (active)	6.56 µM (inactive)		1.04 µM (active)	
COC(=O)CC1N/C(=N\C#N)N(CCc2c[nH]c3ccccc23)C1=O (stereo not drawn)	75.9 µM (inactive)	> 100 µM (inactive)	> 100 µM (inactive)		> 100 µM (inactive)	> 100 µM (inactive)		> 100 µM (inactive)	> 100 µM (inactive)	> 100 µM (inactive)	> 100 µM (inactive)	> 100 µM (inactive)	> 100 µM (inactive)	> 100 µM (inactive)	> 100 µM (inactive)	> 100 µM (inactive)	83 µM (inactive)		> 100 µM (inactive)	
O=c1[nH]c(=O)n(C2OC3COC2C3O)cc1F (stereo not drawn)	> 100 µM (inactive)	> 100 µM (inactive)	> 100 µM (inactive)	29.8 µM (inactive)	> 100 µM (inactive)	> 100 µM (inactive)	> 100 µM (inactive)	> 100 µM (inactive)	> 100 µM (inactive)	> 100 µM (inactive)			> 100 µM (inactive)	> 100 µM (inactive)	> 100 µM (inactive)	> 100 µM (inactive)	> 100 µM (inactive)		> 100 µM (inactive)	
Clc1ccc(Cc2nc3cc(CCN4CCN(c5ccccc5)CC4)ccc3[nH]2)cc1	8.07 µM (inactive)	12.3 µM (inactive)	5.42 µM (inactive)	21 µM (inactive)	15.4 µM (inactive)	17 µM (inactive)	14.1 µM (inactive)	12.6 µM (inactive)	13.8 µM (inactive)	5.58 µM (inactive)		17.3 µM (inactive)	12.8 µM (inactive)	> 100 µM (inactive)	19.1 µM (inactive)	6.87 µM (inactive)	22 µM (inactive)	14.4 µM (inactive)		20.3 µM (inactive)
CC1CCC(=O)C(C(=O)CC2CC(=O)N(C)C(=O)C2)C1 (stereo not drawn)	> 100 µM (inactive)	> 100 µM (inactive)	> 100 µM (inactive)	> 100 µM (inactive)	> 100 µM (inactive)	> 100 µM (inactive)	> 100 µM (inactive)	> 100 µM (inactive)	> 100 µM (inactive)	> 100 µM (inactive)		> 100 µM (inactive)	35.3 µM (inactive)	> 100 µM (inactive)	> 100 µM (inactive)	> 100 µM (inactive)	> 100 µM (inactive)	> 100 µM (inactive)		> 100 µM (inactive)
Cc1ccc(C(=O)C(Cl)C(Cl)c2ccc(C)cc2)cc1 (stereo not drawn)	2.06 µM (inactive)	11.4 µM (inactive)	1.92 µM (inactive)	2.4 µM (inactive)	18.1 µM (inactive)	2.72 µM (inactive)	2.52 µM (inactive)	2.34 µM (inactive)	9.38 µM (inactive)	2.12 µM (inactive)		2.49 µM (inactive)	8.22 µM (inactive)	0.622 µM (active)	2.68 µM (inactive)	2.03 µM (inactive)	5.42 µM (inactive)	16.3 µM (inactive)		21.8 µM (inactive)
